Experiments:
filamentous fungi = assay: MIC / MFC for filamentous fungi, all strains; format: cell-based, Aspergillus, Fusarium, Mucor, Penicillium; conditions: versus susceptible strains; read-out: Mean MIC values
In short: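 Fungal conidia (5.0×10^4 CFU/ml) from 72-hour Sabouraud agar growth served as inoculum, following the yeast-like fungi protocol.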

[1] = system: antibody-producer B lymphocytes (spleen); assay: Test 1: primary antibody production (Jerne test) in spleen of SRBC immunized mice; format: in vivo, mice (male B6 D2F1)
Protocol: Test 1: Evaluation of the "in vitro-ex vivo" effect of repeated oral administrations of ST 722 on the primary antibody production (Jerne test) in the spleen of SRBC (Sheep Red Blood Cells) immunized mice.
Male B6 D2F1 mice (C. River) aged 8 weeks (6 animals each group) were utilized.
The substance (ST 722) was administered per os at the dose of 100 mg/kg/day from day -2 through day +2 (immunization at day 0). The animals were immunized by intraperitoneal route with a concentration of 1.0×10^8 cells/mouse in 0.2 ml of sterile saline.
Five days later, spleens to be submitted to teasing process were removed from the animals sacrificed by cervical dislocation. After standardization at 1.0×10^7 cells/ml. the splenocytes (0.1 ml) were mixed with warm agar-Hank's (2 ml) and 10% SRBC in PBS (0.2 ml) and seeded in Petri dishes (samples tested in triplicates) and incubated at 37° C. for 60 min.
After addition of complement (2 ml of guinea pig serum diluted 1:10 in Tris buffer), samples were further incubated at 37° C. for 30 min. To block the haemolysis reaction, the Petri dishes were cooled at 4° C. and the haemolysis plaques were counted.
The antibody response to SRBC is expressed as number of plaque forming cells (PFC) per 1.0×10^6 splenocytes as well as per spleen.

Candida albicans (A 54) = assay: MIC for yeast and yeast-like strains; format: cell-based; conditions: 48 hours, 35° C., read-out: Minimal Inhibitory Concentration (MIC)
In short: (§1)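 Cells were grown overnight in Sabouraud broth, or 48 h for Cryptococcus, adjusted against a McFarland standard to ~5.0×10^6 CFU/ml, then diluted 1:50. The suspension was combined with an equal volume of test substance in MOPS-buffered (0.165 M) Yeast Nitrogen Base containing asparagine and glucose.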

Candida krusei (ISS 1) = assay: MIC for yeast and yeast-like strains; format: cell-based; conditions: Pichia kudriavzevii; 48 hours, 35° C.; read-out: Minimal Inhibitory Concentration (MIC)
In short: as §1

Candida albicans (Ca 2) = assay: MIC for yeast and yeast-like strains; format: cell-based; conditions: 48 hours, 35° C., read-out: Minimal Inhibitory Concentration (MIC)
In short: as §1

[2] = system: Saccharomyces cerevisiae (ATCC 7752); assay: MIC for yeast and yeast-like strains; format: cell-based; conditions: ATCC7752, 48 hours, 35° C., read-out: Minimal Inhibitory Concentration (MIC)
In short: as §1

[3] = system: Cryptococcus neoformans (4711); assay: MIC for yeast and yeast-like strains; format: cell-based; conditions: 48 hours, 35° C., read-out: Minimal Inhibitory Concentration (MIC)
In short: as §1

[4] = system: Candida tropicalis (5705); assay: MIC for yeast and yeast-like strains; format: cell-based; conditions: 48 hours, 35° C., read-out: Minimal Inhibitory Concentration (MIC)
In short: as §1

[5] = system: spleen, thymus and splenocytes; assay: Test 3: body, spleen and thymus weight and splenocyte concentration; format: in vivo, mice (male B6 D2 F1); conditions: 100 mg/kg/day oral, 5 consecutive days
Protocol: Test 3: Evaluation of the effect of repeated oral administrations of ST 722 on the body, spleen and thymus weight, and on the splenocyte concentration in mice.
Male B6 D2 F1 mice (C. River) aged 10 weeks (5 animals each group) were orally treated with the substance ST 722 at the dose of 100 mg/kg/day for 5 consecutive days. Twenty-four hours after the last administration, the animals were sacrificed, the organs removed and weighed, and the splenocyte number determined.

[6] = system: Cryptococcus neoformans (ISS 1); assay: MIC for yeast and yeast-like strains; format: cell-based; conditions: 48 hours, 35° C., read-out: Minimal Inhibitory Concentration (MIC)
In short: as §1

Candida glabrata (ISS 1) = assay: MIC for yeast and yeast-like strains; format: cell-based; conditions: Nakaseomyces glabratus; 48 hours, 35° C.; read-out: Minimal Inhibitory Concentration (MIC)
In short: as §1

[7] = system: Candida guilliermondii (ISS 1); assay: MIC for yeast and yeast-like strains; format: cell-based; conditions: Meyerozyma guilliermondii; 48 hours, 35° C.; read-out: Minimal Inhibitory Concentration (MIC)
In short: as §1

[8] = system: Candida parapsilosis (ISS 1); assay: MIC for yeast and yeast-like strains; format: cell-based; conditions: Lodderomyces parapsilosis; 48 hours, 35° C.; read-out: Minimal Inhibitory Concentration (MIC)
In short: as §1

Candida albicans (ISS 1) = assay: MIC for yeast and yeast-like strains; format: cell-based; conditions: 48 hours, 35° C., read-out: Minimal Inhibitory Concentration (MIC)
In short: as §1

[9] = system: Candida albicans (ATCC 2091); assay: MIC for yeast and yeast-like strains; format: cell-based; conditions: ATCC2091, 48 hours, 35° C., read-out: Minimal Inhibitory Concentration (MIC)
In short: as §1

[10] = system: Candida pseudotropicalis (EC 1); assay: MIC for yeast and yeast-like strains; format: cell-based; conditions: Kluyveromyces marxianus; 48 hours, 35° C.; read-out: Minimal Inhibitory Concentration (MIC)
In short: as §1

[11] = system: Candida tropicalis (ISS 1); assay: MIC for yeast and yeast-like strains; format: cell-based; conditions: 48 hours, 35° C., read-out: Minimal Inhibitory Concentration (MIC)
In short: as §1

[12] = 100 mg/kg/day per os, day -2 through day +2, x ± S.E.

## CCCCCCCCCCCOC(=O)C[C@H](C[N+](C)(C)C)OC(=O)CC(C)C [ST 722, isovaleryl-L-carnitine undecyl ester chloride]
Filamentous fungi
  MIC: 16.4 µg/mL
[1]; [12]
  PFC/10^6 cells: 261 ± 34 PFC/10^6 cells
  PFC/spleen: 44440 ± 6087 PFC/spleen
[1]; 5 consecutive days oral
  PFC number after antigenic challenge: did not cause a statistically significant modification in PFC number
Candida albicans (A 54)
  MIC: 3.12 µg/mL
Candida krusei (ISS 1)
  MIC: 3.12 µg/mL
Candida albicans (Ca 2)
  MIC: 1.56 µg/mL
[2]
  MIC: 3.12 µg/mL
[3]
  MIC: 1.56 µg/mL
[4]
  MIC: 3.12 µg/mL
[5]
  specific immunotoxic effects on the considered parameters: lack of specific immunotoxic effects
[5]; x ± S.E.
  Body weight: 26.50 ± 0.53 g
  Spleen weight: 73.25 ± 3.84 mg
  Thymus weight: 38.80 ± 3.01 mg
[6]
  MIC: 3.12 µg/mL
Candida glabrata (ISS 1)
  MIC: 6.25 µg/mL
[7]
  MIC: 6.25 µg/mL
[8]
  MIC: 6.25 µg/mL
Candida albicans (ISS 1)
  MIC: 1.56 µg/mL
[9]
  MIC: 3.12 µg/mL
[10]
  MIC: 6.25 µg/mL
[11]
  MIC: 3.12 µg/mL

Source: patent US5525627A, “Esters of acyl carnitines with long-chain aliphatic alcohols and pharmaceutical compositions containing same having antimycotic activity” (Sigma-Tau Industrie Farmaceutiche Riunite S.p.A., priority 1992, dated 1996)
